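All cell lines were grown in 96-well plates and treated with compound for 48 hours. GI50 marks 50% less growth. At the TGI there is no net growth.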

Some test systems named below: BT-549 breast; HS 578T breast; MDA-MB-435; T-47D breast; MDA-N.
Assay in all cases: growth of human tumour cells (NCI), 48 h

Regarding `C=C1SC(=Nc2ccccc2Cl)N(C(=O)c2sc3ccccc3c2Cl)C12CCCCC2`, the GI50 with BT-549 breast was 70.4 µM; in the test with HS 578T breast, 4.84 µM; in the test with MDA-MB-435, 29.8 µM; in the test on T-47D breast, 3.35 µM. The TGI in the test on BT-549 breast, in the test on HS 578T breast, in the test with MDA-MB-435 and in the test on T-47D breast was above 100 µM throughout.
On to `Nc1ccc(COC(O)CN2CCCCC2)cc1[N+](=O)[O-]` (stereo not given), for which the TGI with BT-549 breast, with MDA-MB-435, in the test on MDA-N and in the test with T-47D breast was above 100 µM each time.
Regarding `Cc1nc2ccccn2c1NC(=O)NNC(=S)Nc1ccc(F)cc1`, the GI50 in the test with BT-549 breast, in the test on HS 578T breast, in the test on MDA-MB-435 and in the test on T-47D breast was above 100 µM each time. Besides, the TGI in the test with BT-549 breast, in the test on HS 578T breast, in the test with MDA-MB-435 and in the test on T-47D breast was above 100 µM in each case.
Turning to `O=C(/C=C1\C(=O)N(Cc2ccccc2)c2ccccc21)c1ccc(OCCN2CCCCC2)cc1`, the GI50 was 2.07 µM with BT-549 breast, 3 µM in the test with HS 578T breast, 2.49 µM with MDA-MB-435 and 1.6 µM in the test with T-47D breast. Further, the TGI was found to be 4.05 µM in the test on BT-549 breast, 9.91 µM with HS 578T breast, 9.33 µM with MDA-MB-435 and 3.4 µM in the test with T-47D breast.
Turning to `C[C@]12CC[C@H]3[C@@H](CC4SC(N)=NC45C/C(=N/NC(N)=O)CC[C@]35C)[C@@H]1CCC2=O` (stereo not given in full), the GI50 was 2.84 µM with BT-549 breast, 2.08 µM in the test on HS 578T breast, 1.33 µM with MDA-MB-435 and 1.86 µM in the test with T-47D breast. In addition, the TGI in the test on BT-549 breast was found to be 8.91 µM; in the test on HS 578T breast, 5.15 µM; in the test with MDA-MB-435 it was 2.7 µM; with T-47D breast, 3.8 µM.
`ClCc1ccccc1Cn1cnc2c(Cl)ncnc21`: the GI50 in the test on BT-549 breast is 2 µM; with HS 578T breast it was 2.28 µM; with MDA-MB-435 it was 3.01 µM; in the test on T-47D breast it was 17.9 µM. Further, the TGI is 5.51 µM with BT-549 breast, 6.67 µM in the test with HS 578T breast, 9.49 µM in the test with MDA-MB-435 and 62 µM with T-47D breast.
Consider `C=C1C(=O)O[C@H]2[C@H]1CC/C(COC(=O)CCCc1c[nH]c3ccccc13)=C\CC[C@@]1(C)O[C@@H]21`, for which the GI50 with BT-549 breast was 1.37 µM; in the test on HS 578T breast it was 3.19 µM; in the test on MDA-MB-435 it was 1.74 µM; in the test with T-47D breast, 2.17 µM. The TGI was 3.06 µM in the test with BT-549 breast, 20.9 µM with HS 578T breast, 3.55 µM with MDA-MB-435 and 4.81 µM in the test on T-47D breast.
Turning to `Cc1ccc2c(c1)C(=O)c1c-2c(OCCCN(C)C)nc2ccccc12`, the GI50 is 6.02 µM in the test on BT-549 breast, 4.24 µM with HS 578T breast, 1.54 µM in the test on MDA-MB-435 and 7.95 µM in the test on T-47D breast. Moreover, the TGI in the test on BT-549 breast was 20.2 µM; with HS 578T breast it was 19.8 µM; in the test on MDA-MB-435, 2.97 µM; in the test on T-47D breast, 26 µM.
On to `CN(C)CCCC1(c2ccc(F)cc2)OCc2cc(-c3cc4ccccc4s3)ccc21` (stereo not given), for which the GI50 with BT-549 breast is 2.03 µM; in the test on HS 578T breast it was 1.8 µM; in the test with MDA-MB-435, 1.83 µM; in the test on T-47D breast, 2.04 µM. In addition, the TGI stood at 3.89 µM in the test with BT-549 breast, 3.96 µM with HS 578T breast, 3.32 µM with MDA-MB-435 and 3.75 µM in the test with T-47D breast.
With `C=C1C(=O)O[C@H]2[C@H]1CC/C(COC(=O)OC/C1=C/CC[C@@]3(C)O[C@H]3[C@H]3OC(=O)[C@@H](CN(C)C)[C@@H]3CC1)=C\CC[C@@]1(C)O[C@@H]21`, the GI50 in the test with BT-549 breast is 1.41 µM; in the test on HS 578T breast it was 4.39 µM; in the test on MDA-MB-435, 1.81 µM; in the test with T-47D breast it was 0.714 µM. In addition, the TGI was found to be 2.8 µM with BT-549 breast, 26.9 µM with HS 578T breast, 4.31 µM with MDA-MB-435 and 3.08 µM in the test with T-47D breast.
Take `O=CN1N=C(c2cccc(Nc3ccnc4cc(Cl)ccc34)c2)CC1c1ccccc1` (stereo not given): the GI50 in the test with BT-549 breast was 0.207 µM; in the test with HS 578T breast, 0.248 µM; in the test on MDA-MB-435, 0.0889 µM; with T-47D breast, 0.381 µM. The TGI with BT-549 breast was determined as 1.51 µM; with HS 578T breast, 3.4 µM; in the test with MDA-MB-435, 0.432 µM; in the test with T-47D breast, 9.59 µM.
In the case of `O=C(C#Cc1ccccc1)C1=Cc2ccccc2OC1`, the TGI is 5.16 µM in the test with BT-549 breast, 23.8 µM in the test with HS 578T breast, 12.5 µM with MDA-MB-435 and above 61.1 µM in the test on T-47D breast.
Consider `CC(=O)O[C@H]1C(=O)[C@@]2(C)[C@H]([C@H](OC(=O)c3ccccc3)[C@]3(O)C[C@H](OC(=O)[C@H](OC(=O)OC[C@H]4COC(C)(C)O4)[C@@H](NC(=O)c4ccccc4)c4ccccc4)C(C)=C1C3(C)C)[C@]1(OC(C)=O)CO[C@@H]1C[C@@H]2O`, for which the GI50 with BT-549 breast was 0.0576 µM; in the test with HS 578T breast, 0.0166 µM; with MDA-MB-435, 0.00333 µM; with T-47D breast, 0.0437 µM. Further, the TGI in the test with BT-549 breast is above 33.3 µM; in the test with HS 578T breast, 0.39 µM; in the test on MDA-MB-435 it was 0.00852 µM; in the test on T-47D breast, above 33.3 µM.
On to `COc1ccc(/C=C2\SC(=Nc3ccccc3)NC2=O)cc1`, for which the GI50 in the test on BT-549 breast is 45.7 µM; in the test on HS 578T breast, 4.32 µM; in the test with MDA-MB-435 it was 2.14 µM; in the test on T-47D breast, 6.46 µM. In addition, the TGI in the test with BT-549 breast is above 100 µM; in the test on HS 578T breast, 40.7 µM; in the test with MDA-MB-435, 5.34 µM; in the test on T-47D breast, above 100 µM.
Turning to `O=C(Nc1ccc(F)cc1)Nc1ccc(Br)c(C(F)(F)F)c1`, the GI50 in the test with BT-549 breast is 2.05 µM; with HS 578T breast, 2.95 µM; with MDA-MB-435 it was 2.4 µM; in the test on T-47D breast it was 1.62 µM. Also, the TGI in the test on BT-549 breast was 7.4 µM; with HS 578T breast it was 9.31 µM; in the test on MDA-MB-435 it was 8.59 µM; in the test on T-47D breast, 7.4 µM.
Consider `C[n+]1c2ccccc2nc2ccccc21`, for which the GI50 in the test on BT-549 breast is 2.26 µM; in the test on HS 578T breast it was 0.953 µM; with MDA-MB-435 it was 0.516 µM; with T-47D breast, 1.07 µM. Besides, the TGI in the test on BT-549 breast worked out at 10.8 µM; in the test with HS 578T breast, 3.72 µM; in the test on MDA-MB-435, 1.75 µM; in the test on T-47D breast, 2.72 µM.

These data come from PubChem BioAssay (NCI).
